Laboratory results published in PMC6354820 (Endocrinology, Diabetes & Metabolism, 2018).

Key:
[1] = target: Kir6.2 (pore subunit of the pancreatic beta-cell KATP channel) (Mus musculus, UniProt Q61743); assay: inside-out patch-clamp, single-channel NPo concentration-effect; format: cell-based
[2] = target: SUR1 (sulphonylurea receptor subunit of the pancreatic beta-cell KATP channel) (Mus musculus, UniProt B2RUS7); assay: standard whole-cell patch-clamp, block by a single concentration; format: cell-based; conditions: read-out: % inhibition at 20 μmol/L
SUR1 (sulphonylurea receptor subunit of the pancreatic beta-cell KATP channel), sequence (B2RUS7 1-1588): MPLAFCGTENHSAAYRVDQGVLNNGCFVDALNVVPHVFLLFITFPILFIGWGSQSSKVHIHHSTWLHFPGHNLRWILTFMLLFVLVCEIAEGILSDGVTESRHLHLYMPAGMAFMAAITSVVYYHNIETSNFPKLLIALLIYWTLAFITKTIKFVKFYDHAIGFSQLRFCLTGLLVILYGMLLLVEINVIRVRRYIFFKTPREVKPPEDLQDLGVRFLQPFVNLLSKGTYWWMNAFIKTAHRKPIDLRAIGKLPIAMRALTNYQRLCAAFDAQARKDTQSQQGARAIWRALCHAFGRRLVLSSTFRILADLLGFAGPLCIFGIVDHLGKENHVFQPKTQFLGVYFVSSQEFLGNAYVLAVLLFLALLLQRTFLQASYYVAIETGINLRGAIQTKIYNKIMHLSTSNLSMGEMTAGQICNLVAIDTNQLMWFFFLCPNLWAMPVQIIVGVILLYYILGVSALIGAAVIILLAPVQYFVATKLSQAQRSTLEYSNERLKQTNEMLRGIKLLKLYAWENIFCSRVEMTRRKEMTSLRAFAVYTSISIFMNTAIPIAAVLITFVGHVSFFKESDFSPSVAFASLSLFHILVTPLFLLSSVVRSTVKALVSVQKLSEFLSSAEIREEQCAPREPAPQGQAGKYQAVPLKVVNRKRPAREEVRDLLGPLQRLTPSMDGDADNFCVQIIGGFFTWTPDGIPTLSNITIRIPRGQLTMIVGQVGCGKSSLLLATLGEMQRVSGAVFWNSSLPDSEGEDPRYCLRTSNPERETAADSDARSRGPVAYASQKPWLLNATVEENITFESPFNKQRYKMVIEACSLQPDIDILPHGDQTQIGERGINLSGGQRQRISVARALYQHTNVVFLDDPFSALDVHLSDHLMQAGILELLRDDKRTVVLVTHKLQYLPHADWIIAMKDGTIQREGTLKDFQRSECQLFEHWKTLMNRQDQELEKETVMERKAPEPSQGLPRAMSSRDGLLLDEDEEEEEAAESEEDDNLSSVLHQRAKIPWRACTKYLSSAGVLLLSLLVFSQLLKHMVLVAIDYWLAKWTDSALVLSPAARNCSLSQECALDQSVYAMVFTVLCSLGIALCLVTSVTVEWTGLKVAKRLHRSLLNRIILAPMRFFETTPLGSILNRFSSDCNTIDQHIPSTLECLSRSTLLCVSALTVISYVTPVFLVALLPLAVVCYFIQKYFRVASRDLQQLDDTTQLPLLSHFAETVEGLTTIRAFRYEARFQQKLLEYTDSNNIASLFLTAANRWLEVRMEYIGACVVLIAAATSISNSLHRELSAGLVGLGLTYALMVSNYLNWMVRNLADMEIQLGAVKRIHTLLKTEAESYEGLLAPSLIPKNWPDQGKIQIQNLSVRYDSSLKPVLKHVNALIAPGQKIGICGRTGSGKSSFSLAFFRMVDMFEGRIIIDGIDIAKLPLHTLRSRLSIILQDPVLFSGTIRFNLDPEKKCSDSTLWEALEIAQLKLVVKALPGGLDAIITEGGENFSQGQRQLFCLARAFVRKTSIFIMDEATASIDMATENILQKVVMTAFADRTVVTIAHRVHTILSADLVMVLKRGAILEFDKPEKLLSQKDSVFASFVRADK
SUR1 (sulphonylurea receptor subunit of the pancreatic beta-cell KATP channel), sequence (Q61743 whole entry partner): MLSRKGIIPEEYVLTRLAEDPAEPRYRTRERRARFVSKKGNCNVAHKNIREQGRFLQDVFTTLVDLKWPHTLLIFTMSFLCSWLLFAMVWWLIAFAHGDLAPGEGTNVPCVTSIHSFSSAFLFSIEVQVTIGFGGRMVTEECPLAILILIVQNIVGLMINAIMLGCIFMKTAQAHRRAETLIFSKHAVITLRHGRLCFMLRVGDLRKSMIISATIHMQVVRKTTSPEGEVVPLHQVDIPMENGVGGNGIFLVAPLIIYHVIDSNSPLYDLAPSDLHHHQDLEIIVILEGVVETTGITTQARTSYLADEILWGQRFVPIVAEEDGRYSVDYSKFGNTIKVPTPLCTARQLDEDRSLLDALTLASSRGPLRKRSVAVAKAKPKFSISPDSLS

Kir6.2 (pore subunit of the pancreatic beta-cell KATP channel), sequence (Q61743 whole entry): as the sequence (Q61743 whole entry partner) above
Kir6.2 (pore subunit of the pancreatic beta-cell KATP channel), sequence (B2RUS7 1-1588 partner): as the sequence (B2RUS7 1-1588) above

SMILES: CCC(C)(C)C(=O)O[C@H]1C[C@@H](C)C=C2C=C[C@H](C)[C@H](CC[C@@H]3C[C@@H](O)CC(=O)O3)[C@H]21 [Sim, simvastatin]
- IC50 [1]: 26 nM

SMILES: CCCCNC(=O)NS(=O)(=O)c1ccc(C)cc1 [Tb, tolbutamide]
- inhibition at 20 µM [2]: 43 ± 3.3%
